{"source": "paper doi:10.1101/2022.09.20.508773v1", "about": "(biorxiv, 2022)", "molecular_target": "T1, NΔ47-TPH2-R (Homo sapiens, UniProt Q8IWU9)", "T1 sequence (Q8IWU9 48-145)": "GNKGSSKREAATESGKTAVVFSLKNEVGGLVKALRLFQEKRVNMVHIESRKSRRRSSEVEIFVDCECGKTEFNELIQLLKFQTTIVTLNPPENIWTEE", "test": "protein-observed NMR titration, 1H-15N HSQC, 2D line-shape analysis", "format": "binding"}
{"smiles": "N[C@@H](Cc1ccccc1)C(=O)O", "note": "[L-Phe]", "values": [{"measurement": "Kd", "result": "40.8 ± 0.8", "unit": "µM"}]}
